Test results from BigSolDB 2.1.

COc1cccc(CCc2ccccc2OCC(CN(C)C)OC(=O)CCC(=O)O)c1.Cl (stereo not given)
solubility (mole fraction)
Settings	in THF	in acetone	in acetonitrile	in ethanol	in isopropanol	in methanol	in n-butanol	in n-propanol
288.15 K	2.24e-05	4.85e-05	9.78e-05	0.00168	4.48e-05	0.00376	0.00011	0.000171
293.15 K	3.25e-05	7.84e-05	0.000141	0.00211	8.24e-05	0.00493	0.000146	0.000262
298.15 K	4.28e-05	0.000106	0.000171	0.00278	0.00011	0.00653	0.00019	0.000354
303.15 K	7.01e-05	0.000193	0.000239	0.00345	0.000144	0.00856	0.000294	0.000504
308.15 K	9.92e-05	0.000275	0.000313	0.00476	0.000186	0.0116	0.000412	0.000698
